Results as given in PubChem BioAssay (NCI).
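Values below derive from 48-hour exposures of cells grown in 96-well plates, with endpoints linearly interpolated between the two concentrations bracketing the appropriate inhibition level. At the GI50, growth is halved. The concentration for full growth arrest is given as TGI.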

Experiments:
Assay in all cases: growth of human tumour cells (NCI), 48 h
[1] = test system: SNB-75 CNS
[2] = test system: SK-MEL-28 melanoma
[3] = test system: A498 renal
[4] = test system: HS 578T breast
[5] = test system: SK-MEL-5 melanoma
[6] = test system: OVCAR-5 ovarian
[7] = test system: UO-31 renal
[8] = test system: NCI/ADR-RES ovarian
[9] = test system: DU-145 prostate
[10] = test system: OVCAR-4 ovarian
[11] = test system: NCI-H460 lung
[12] = test system: UACC-62 melanoma
[13] = test system: SK-MEL-2 melanoma
[14] = test system: SF-539 CNS
[15] = test system: KM12 colon
[16] = test system: PC-3 prostate
[17] = test system: SNB-19 CNS
[18] = test system: NCI-H23 lung
[19] = test system: HL-60(TB) leukemia
[20] = test system: SK-OV-3 ovarian
[21] = test system: MCF7 breast
[22] = test system: BT-549 breast
[23] = test system: SF-295 CNS
[24] = test system: MDA-MB-435
[25] = test system: COLO 205 colon
[26] = test system: SF-268 CNS
[27] = test system: OVCAR-3 ovarian
[28] = test system: EKVX NSCLC
[29] = test system: T-47D breast
[30] = test system: K-562 leukemia
[31] = test system: CAKI-1 renal
[32] = test system: RXF 393 renal
[33] = test system: HCC-2998 colon
[34] = test system: SW-620 colon
[35] = test system: RPMI-8226 leukemia
[36] = test system: SR leukemia
[37] = test system: TK-10 renal
[38] = test system: MALME-3M melanoma
[39] = test system: HT29 colon
[40] = test system: IGROV1 ovarian
[41] = test system: NCI-H522 lung
[42] = test system: MOLT-4 leukemia
[43] = test system: HCT-15 colon
[44] = test system: U251 CNS
[45] = test system: HOP-92 NSCLC
[46] = test system: UACC-257 melanoma
[47] = test system: M14 melanoma
[48] = test system: OVCAR-8 ovarian
[49] = test system: HCT-116 colon
[50] = test system: SN12C renal
[51] = test system: HOP-62 NSCLC
[52] = test system: LOX IMVI melanoma
[53] = test system: 786-0 renal
[54] = test system: A549 NSCLC
[55] = test system: MDA-MB-231 breast
[56] = test system: NCI-H226 lung
[57] = test system: CCRF-CEM leukemia

C[C@@H]1CC[C@@H]2[C@@H]1[C@H](OC(=O)/C=C/c1ccccc1)[C@]1(C3CCCCC3)C[C@@H](OC(=O)CO)[C@@]2(C)O1
GI50 [1]: 1.09 µM
TGI [1]: 14.7 µM
GI50 [2]: 3.59 µM
TGI [2]: 15.1 µM
GI50 [3]: 0.0191 µM
TGI [3]: 0.0572 µM
GI50 [4]: 0.0237 µM
TGI [4]: 0.0978 µM
GI50 [5]: 2.36 µM
TGI [5]: 6.11 µM
GI50 [6]: 1.93 µM
TGI [6]: 5.59 µM
GI50 [7]: 0.015 µM
TGI [7]: 0.03 µM
GI50 [8]: 0.515 µM
TGI [8]: 5.2 µM
GI50 [9]: 3.99 µM
TGI [9]: 14.7 µM
GI50 [10]: 3.92 µM
TGI [10]: 16 µM
GI50 [11]: 2.62 µM
TGI [11]: 6.55 µM
GI50 [12]: 3.11 µM
TGI [12]: 10.1 µM
GI50 [13]: 4.03 µM
TGI [13]: 16.1 µM
GI50 [14]: 5.48 µM
TGI [14]: 18.5 µM
GI50 [15]: 3.1 µM
TGI [15]: 10.8 µM
GI50 [16]: 3.04 µM
TGI [16]: 11.3 µM
GI50 [17]: 3.94 µM
TGI [17]: 13.6 µM
GI50 [18]: 3.88 µM
TGI [18]: 14.8 µM
GI50 [19]: 2.75 µM
TGI [19]: 6.43 µM
GI50 [20]: 6.71 µM
TGI [20]: 20.2 µM
GI50 [21]: 2.58 µM
TGI [21]: 10.8 µM
GI50 [22]: 0.0337 µM
TGI [22]: 0.729 µM
GI50 [23]: 3.6 µM
TGI [23]: 13.1 µM
GI50 [24]: 2.99 µM
TGI [24]: 11 µM
GI50 [25]: 3.12 µM
TGI [25]: 11.1 µM
GI50 [26]: 1.48 µM
TGI [26]: 9.86 µM
GI50 [27]: 2.53 µM
TGI [27]: 7.3 µM
GI50 [28]: 3.47 µM
TGI [28]: 15.6 µM
GI50 [29]: 2.64 µM
TGI [29]: 10.7 µM
GI50 [30]: 3.88 µM
TGI [30]: 14.6 µM
GI50 [31]: 0.0347 µM
TGI [31]: 11 µM
GI50 [32]: 0.0779 µM
TGI [32]: 3.16 µM
GI50 [33]: 1.94 µM
TGI [33]: 3.92 µM
GI50 [34]: 4.43 µM
TGI [34]: 16.9 µM
GI50 [35]: 2.99 µM
TGI [35]: 7.49 µM
GI50 [36]: 2.6 µM
TGI [36]: 6.9 µM
GI50 [37]: 9.17 µM
TGI [37]: 22.5 µM
GI50 [38]: 2.48 µM
TGI [38]: 7.21 µM
GI50 [39]: 2.89 µM
TGI [39]: 8.05 µM
GI50 [40]: 3.84 µM
TGI [40]: 15 µM
GI50 [41]: 2.4 µM
TGI [41]: 6.75 µM
GI50 [42]: 2.61 µM
TGI [42]: 6.07 µM
GI50 [43]: 2.44 µM
TGI [43]: 7.93 µM
GI50 [44]: 2.7 µM
TGI [44]: 8.26 µM
GI50 [45]: 2.68 µM
TGI [45]: 9.17 µM
GI50 [46]: 5.1 µM
TGI [46]: 18.7 µM
GI50 [47]: 3.57 µM
TGI [47]: 15.2 µM
GI50 [48]: 0.513 µM
TGI [48]: 13 µM
GI50 [49]: 1.92 µM
TGI [49]: 4.13 µM
GI50 [50]: 0.086 µM
TGI [50]: 3.56 µM
GI50 [51]: 3.3 µM
TGI [51]: 14 µM
GI50 [52]: 1.67 µM
TGI [52]: 3.27 µM
GI50 [53]: 1.17 µM
TGI [53]: 3.07 µM
GI50 [54]: 4.03 µM
TGI [54]: 14.1 µM
GI50 [55]: 2.47 µM
TGI [55]: 6.61 µM
GI50 [56]: 2.06 µM
TGI [56]: 5.56 µM
GI50 [57]: 4.45 µM
TGI [57]: 14.1 µM
